Measurements published in patent US20030215930A1, “Genes involved in cyclododecanone degradation pathway” (priority 2002, published 2003).

Assays:
Rhodococcus ruber SC1 = experiment: Growth of Rhodococcus ruber SC1 on cyclic ketones as sole carbon and energy source; assay type: cell-based; settings: cyclic ketone as sole carbon and energy source
Procedure: Synthetic S12 medium was used to establish enrichment. S12 medium contains the following: 10 mM ammonium sulfate, 50 mM potassium phosphate buffer (pH 7.0), 2 mM MgCl2, 0.7 mM CaCl2, 50 μM MnCl2, 1 μM FeCl3, 1 μM […], 1.72 μM CuSO4, 2.53 μM CoCl2, 2.42 μM […], and 0.0001% FeSO4. The carbon sources were added directly to the S12 medium and the bacteria were grown in sealed culture flasks.
S12 agar was used to test isolates that utilize compounds as the sole source of carbon and energy. S12 agar was prepared by adding 1.5% Noble agar (DIFCO) to S12 medium. Bacteria growing on S12 agar were supplied with volatile compounds such as cyclododecanone by sprinkling solids of the volatile compound on the interior of the petri dish lid or 5 μl of other volatile liquid as vapor. The petri dish was sealed with parafilm and incubated with the lid on the bottom.
Rhodococcus ruber SC1 isolated from cyclododecanone (C12 cyclic ketone) enrichment culture was also tested for growth on cyclic ketones of different carbon numbers as sole carbon and energy source (Table 3). It grows well on cyclopentadecanone (C15 cyclic ketone), cyclotridecanone (C13 cyclic ketone), cyclododecanone (C12 cyclic ketone) and cycloundecanone (C11 cyclic ketone).

[1] = system: monooxygenase and esterase on the S8C; experiment: Production of different chain length hydroxy acids from cyclic ketones by recombinant E. coli cosmid clone S8C (GC/MS); assay type: cell-based, Escherichia coli; settings: cyclic ketone substrate at 250 mg/L
Procedure: Transformed XL1-Blue MR cells were grown in M9 medium with 0.4% glucose as sole carbon source. Substrate for conversion was added at early log phase (OD=0.2) and cells were allowed to grow at 30° C. for 20 additional hours. Cells were then frozen and thawed once, centrifiged, and supernatant was filtered through 0.2 μm filters. Filtrate was prepared for GC/MS analysis as described below.
Filtrate was first acidified to pH 2 using concentrated HCl. The acidified sample was extracted twice with methylene chloride or ethyl acetate. The extracts were combined and dried by adding anhydrous magnesium sulfate. Magnesium sulfate was then removed by filteration using Whatman 3MM filter paper and the remaining solvent in the filtrate was evaporated under a gentle stream of nitrogen. […]
Example 8 explores whether the cyclic substrates could be expanded to cyclic ketones of different chain length and whether corresponding hydroxy acids could be produced. […] Large amount of corresponding hydroxy acids were detected from S8C grown in the presence of C11, C12 and C13 cyclic ketones. Medium level of 15-hydroxy acid was detected from C15 cyclic ketone grown cells. Small amount of hydroxy acids was detected from cells grown on C6 and C10 cyclic ketones. […]

Compound	Growth of Rhodococcus ruber SC1 (Rhodococcus ruber SC1)	Corresponding Hydroxy Acid Produced by E. coli Cosmids [1]
O=C1CCCCC1 [C6, cyclohexanone]	does not grow	Small amount
O=C1CCCCCC1 [C7, cycloheptanone]	does not grow	–
O=C1CCCCCCC1 [C8, cyclooctanone]	does not grow	–
O=C1CCCCCCCCC1 [C10, cyclodecanone]	grows moderately well	Small amount
O=C1CCCCCCCCCC1 [C11, cycloundecanone]	grows well	–
O=C1CCCCCCCCCCC1 [C12, cyclododecanone]	grows well	–
O=C1CCCCCCCCCCCC1 [C13, cyclotridecanone]	grows well	–
O=C1CCCCCCCCCCCCCC1 [C15, cyclopentadecanone]	grows well	–
